The results in this text go back to patent US7799809B2, “Carboxamide compounds and their use as calpain inhibitors” (Abbott GmbH & Co. KG, priority 2006, dated 2010).

Common to all, as to assay type: biochemical
The target of one test is T1, cathepsin L (Homo sapiens, UniProt P07711).
T1 construct: cathepsin L—isolated from human liver (Calbiochem #219402); purchased Calbiochem 219402; host or cells: human liver (tissue-derived)
Kind of test: Cathepsin L enzyme inhibition in vitro (kinetic fluorescence assay). The conditions noted are these: cathepsin L isolated from human liver vs calpain I. The essentials: (§1)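 Inhibition is measured at room temperature in cysteine-containing MES buffer, pH 6.0, by continuous fluorescence at 460 nm. Cathepsin S (0.5 nM) uses 20 μM Z-Val-Val-Arg-AMC; L (1 nM) and B (0.25 nM) use Z-Phe-Arg-AMC at 2 and 100 μM respectively.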

A further test has as its target T2, cathepsin K (Homo sapiens, UniProt P43235).
T2 construct: purchased Calbiochem 342001; host or cells: E. coli
T2 sequence (P43235 115-329): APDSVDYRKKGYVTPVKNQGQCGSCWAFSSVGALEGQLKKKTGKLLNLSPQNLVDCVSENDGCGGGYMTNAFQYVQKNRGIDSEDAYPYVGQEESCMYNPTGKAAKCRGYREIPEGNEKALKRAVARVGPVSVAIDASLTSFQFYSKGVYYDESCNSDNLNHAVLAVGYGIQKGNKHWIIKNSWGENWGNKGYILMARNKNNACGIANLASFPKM
Kind of test: Cathepsin K enzyme inhibition in vitro (kinetic fluorescence assay). The conditions noted are these: cathepsin K activated from recombinant human procathepsin K vs calpain I.

A further test addresses T3, cathepsin B (Homo sapiens, UniProt P07858).
T3 construct: cathepsin B—isolated from human liver (Calbiochem #219362); purchased Calbiochem 219362; host or cells: human liver (tissue-derived)
Kind of test: Cathepsin B enzyme inhibition in vitro (kinetic fluorescence assay). The conditions noted are these: cathepsin B isolated from human liver vs calpain I. The gist of the method: as §1

The next test addresses T4, cathepsin S (Homo sapiens, UniProt P25774).
T4 construct: purchased Calbiochem 219343; host or cells: E. coli
Kind of test: Cathepsin S enzyme inhibition in vitro (kinetic fluorescence assay). The conditions noted are these: recombinant human cathepsin S vs calpain I. The essentials: as §1

T4 sequence (P25774 115-331): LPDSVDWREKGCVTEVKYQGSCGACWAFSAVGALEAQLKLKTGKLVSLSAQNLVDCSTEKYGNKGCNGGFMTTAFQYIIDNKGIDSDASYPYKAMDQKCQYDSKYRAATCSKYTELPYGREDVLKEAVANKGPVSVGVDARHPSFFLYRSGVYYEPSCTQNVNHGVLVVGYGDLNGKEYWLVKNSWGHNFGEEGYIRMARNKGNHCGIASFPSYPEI
T1 sequence (P07711 114-333): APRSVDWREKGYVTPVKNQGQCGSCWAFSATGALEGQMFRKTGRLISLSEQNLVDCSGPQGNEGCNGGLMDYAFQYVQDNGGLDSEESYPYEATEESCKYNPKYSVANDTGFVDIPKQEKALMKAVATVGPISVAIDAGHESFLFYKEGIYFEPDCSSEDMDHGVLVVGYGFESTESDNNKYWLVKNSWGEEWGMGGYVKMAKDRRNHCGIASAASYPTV

As to “N-{3-Amino-1-[(4-fluorophenyl)methyl]-2,3-dioxopropyl}-2-[3-(2-chloro-3-fluorophenyl)-1H-pyrazol-1-yl]pyridine-3-carboxamide [Example 154]”, at cathepsin L, the “Sel cat. L: Ki(cathepsin L)/Ki(calpain) ratio” value is recorded as “++ (++ means a Ki(cathepsin L)/Ki(calpain) ratio of ≧50)”. In addition, the “Sel cat. K: Ki(cathepsin K)/Ki(calpain) ratio” value on cathepsin K was “++ (++ means a Ki(cathepsin K)/Ki(calpain) ratio of ≧30)”. Further, the “Sel cat. B: Ki(cathepsin B)/Ki(calpain) ratio” value at cathepsin B was “++ (++ means a Ki(cathepsin B)/Ki(calpain) ratio of ≧30)”. Moreover, the “Sel cat. S: Ki(cathepsin S)/Ki(calpain) ratio” value at cathepsin S was “++ (++ means a Ki(cathepsin S)/Ki(calpain) ratio of ≧100)”.

For the compound `NC(=O)C(=O)C(Cc1ccccc1)NC(=O)c1cccnc1-n1ccc(-c2cccc(C(F)(F)F)c2Cl)n1` (stereo not shown) [Example 155, N-[3-Amino-2,3-dioxo-1-(phenylmethyl)propyl]-2-{3-[2-chloro-3-(trifluoromethyl)phenyl]-1H-pyrazol-1-yl}pyridine-3-carboxamide], at cathepsin L, the “Sel cat. L: Ki(cathepsin L)/Ki(calpain) ratio” value is listed as “++ (++ means a Ki(cathepsin L)/Ki(calpain) ratio of ≧50)”. Moreover, on cathepsin K, the “Sel cat. K: Ki(cathepsin K)/Ki(calpain) ratio” value is given as “++ (++ means a Ki(cathepsin K)/Ki(calpain) ratio of ≧30)”. Moreover, the “Sel cat. B: Ki(cathepsin B)/Ki(calpain) ratio” value at cathepsin B was “++ (++ means a Ki(cathepsin B)/Ki(calpain) ratio of ≧30)”. For the same compound, the “Sel cat. S: Ki(cathepsin S)/Ki(calpain) ratio” value at cathepsin S was “++ (++ means a Ki(cathepsin S)/Ki(calpain) ratio of ≧100)”.

For the compound “N-[3-Amino-2,3-dioxo-1-(phenylmethyl)propyl]-2-[3-(3,5-dichlorophenyl)-1H-pyrazol-1-yl]pyridine-3-carboxamide [Example 89]”, the “Sel cat. L: Ki(cathepsin L)/Ki(calpain) ratio” value at cathepsin L is given as “++ (++ means a Ki(cathepsin L)/Ki(calpain) ratio of ≧50)”. Moreover, at cathepsin K, the “Sel cat. K: Ki(cathepsin K)/Ki(calpain) ratio” value is listed as “+ (+ means 10≦Ki(cathepsin K)/Ki(calpain)<30)”. Also, at cathepsin B, the “Sel cat. B: Ki(cathepsin B)/Ki(calpain) ratio” value is given as “+ (+ means 10≦Ki(cathepsin B)/Ki(calpain)<30)”. The “Sel cat. S: Ki(cathepsin S)/Ki(calpain) ratio” value on cathepsin S is listed as “++ (++ means a Ki(cathepsin S)/Ki(calpain) ratio of ≧100)”.

Take `NC(=O)C(=O)C(Cc1ccccc1)NC(=O)c1cccnc1-n1ccc(-c2ccc(F)cc2Cl)n1` (stereo not shown) [Example 71, N-(3-Amino-1-benzyl-2,3-dioxopropyl)-2-[3-(2-chloro-4-fluorophenyl)-1H-pyrazol-1-yl]nicotinamide]: the “Sel cat. L: Ki(cathepsin L)/Ki(calpain) ratio” value at cathepsin L is given as “++ (++ means a Ki(cathepsin L)/Ki(calpain) ratio of ≧50)”. For the same compound, the “Sel cat. K: Ki(cathepsin K)/Ki(calpain) ratio” value at cathepsin K is “++ (++ means a Ki(cathepsin K)/Ki(calpain) ratio of ≧30)”. Moreover, on cathepsin B, the “Sel cat. B: Ki(cathepsin B)/Ki(calpain) ratio” value was “++ (++ means a Ki(cathepsin B)/Ki(calpain) ratio of ≧30)”. In addition, the “Sel cat. S: Ki(cathepsin S)/Ki(calpain) ratio” value on cathepsin S is recorded as “++ (++ means a Ki(cathepsin S)/Ki(calpain) ratio of ≧100)”.

For the compound `COc1ccc(CC(NC(=O)c2cccnc2-n2ccc(-c3ccc(F)cc3OC)n2)C(=O)C(N)=O)cc1` (stereo not shown) [Example 136, N-(3-Amino-1-{[4-(methyloxy)phenyl]methyl}-2,3-dioxopropyl)-2-{3-[4-fluoro-2-(methyloxy)phenyl]-1H-pyrazol-1-yl}pyridine-3-carboxamide], the “Sel cat. L: Ki(cathepsin L)/Ki(calpain) ratio” value at cathepsin L is listed as “++ (++ means a Ki(cathepsin L)/Ki(calpain) ratio of ≧50)”. Also, the “Sel cat. K: Ki(cathepsin K)/Ki(calpain) ratio” value on cathepsin K is recorded as “++ (++ means a Ki(cathepsin K)/Ki(calpain) ratio of ≧30)”. Moreover, the “Sel cat. B: Ki(cathepsin B)/Ki(calpain) ratio” value on cathepsin B is on record as “++ (++ means a Ki(cathepsin B)/Ki(calpain) ratio of ≧30)”. In addition, the “Sel cat. S: Ki(cathepsin S)/Ki(calpain) ratio” value at cathepsin S is “++ (++ means a Ki(cathepsin S)/Ki(calpain) ratio of ≧100)”.

For `NC(=O)C(=O)C(Cc1ccccc1)NC(=O)c1cccnc1-n1ccc(-c2cccs2)n1` (stereo not shown) [Example 55, N-(3-Amino-1-benzyl-2,3-dioxopropyl)-2-[3-(2-thienyl)-1H-pyrazol-1-yl]nicotinamide], the “Sel cat. L: Ki(cathepsin L)/Ki(calpain) ratio” value at cathepsin L is listed as “++ (++ means a Ki(cathepsin L)/Ki(calpain) ratio of ≧50)”. Further, the “Sel cat. K: Ki(cathepsin K)/Ki(calpain) ratio” value on cathepsin K is given as “+ (+ means 10≦Ki(cathepsin K)/Ki(calpain)<30)”. Further, the “Sel cat. B: Ki(cathepsin B)/Ki(calpain) ratio” value at cathepsin B is reported as “+ (+ means 10≦Ki(cathepsin B)/Ki(calpain)<30)”. Besides, the “Sel cat. S: Ki(cathepsin S)/Ki(calpain) ratio” value on cathepsin S is reported as “++ (++ means a Ki(cathepsin S)/Ki(calpain) ratio of ≧100)”.

For `Cl.NC(=O)C(=O)C(Cc1cccnc1)NC(=O)c1cccnc1-n1ccc(-c2ccccc2)n1` (stereo not shown) [Example 88, N-[3-Amino-2,3-dioxo-1-(pyridin-3-ylmethyl)propyl]-2-(3-phenyl-1H-pyrazol-1-yl)pyridine-3-carboxamide hydrochloride], the “Sel cat. L: Ki(cathepsin L)/Ki(calpain) ratio” value on cathepsin L is given as “++ (++ means a Ki(cathepsin L)/Ki(calpain) ratio of ≧50)”. In addition, at cathepsin K, the “Sel cat. K: Ki(cathepsin K)/Ki(calpain) ratio” value is given as “++ (++ means a Ki(cathepsin K)/Ki(calpain) ratio of ≧30)”. Besides, on cathepsin B, the “Sel cat. B: Ki(cathepsin B)/Ki(calpain) ratio” value is “+ (+ means 10≦Ki(cathepsin B)/Ki(calpain)<30)”. The “Sel cat. S: Ki(cathepsin S)/Ki(calpain) ratio” value at cathepsin S is given as “++ (++ means a Ki(cathepsin S)/Ki(calpain) ratio of ≧100)”.

For `NC(=O)C(=O)C(Cc1ccccc1)NC(=O)c1cccnc1-n1ccc(-c2c(F)cccc2F)n1` (stereo not shown) [Example 85, N-[3-Amino-2,3-dioxo-1-(phenylmethyl)propyl]-2-[3-(2,6-difluorophenyl)-1H-pyrazol-1-yl]pyridine-3-carboxamide], the “Sel cat. L: Ki(cathepsin L)/Ki(calpain) ratio” value on cathepsin L is given as “++ (++ means a Ki(cathepsin L)/Ki(calpain) ratio of ≧50)”. The “Sel cat. K: Ki(cathepsin K)/Ki(calpain) ratio” value on cathepsin K is “++ (++ means a Ki(cathepsin K)/Ki(calpain) ratio of ≧30)”. The “Sel cat. B: Ki(cathepsin B)/Ki(calpain) ratio” value at cathepsin B is “+ (+ means 10≦Ki(cathepsin B)/Ki(calpain)<30)”. Also, the “Sel cat. S: Ki(cathepsin S)/Ki(calpain) ratio” value on cathepsin S is given as “++ (++ means a Ki(cathepsin S)/Ki(calpain) ratio of ≧100)”.

As to `NC(=O)C(=O)C(Cc1ccc(OC(F)(F)F)cc1)NC(=O)c1cccnc1-n1ccc(-c2ccc(F)cc2)n1` (stereo not shown) [Example 132, N-[3-Amino-2,3-dioxo-1-({4-[(trifluoromethyl)oxy]phenyl}methyl)propyl]-2-[3-(4-fluorophenyl)-1H-pyrazol-1-yl]pyridine-3-carboxamide], the “Sel cat. L: Ki(cathepsin L)/Ki(calpain) ratio” value at cathepsin L is reported as “++ (++ means a Ki(cathepsin L)/Ki(calpain) ratio of ≧50)”. Further, the “Sel cat. K: Ki(cathepsin K)/Ki(calpain) ratio” value at cathepsin K is listed as “++ (++ means a Ki(cathepsin K)/Ki(calpain) ratio of ≧30)”. Moreover, the “Sel cat. B: Ki(cathepsin B)/Ki(calpain) ratio” value on cathepsin B was “+ (+ means 10≦Ki(cathepsin B)/Ki(calpain)<30)”. Besides, the “Sel cat. S: Ki(cathepsin S)/Ki(calpain) ratio” value at cathepsin S is listed as “++ (++ means a Ki(cathepsin S)/Ki(calpain) ratio of ≧100)”.

Turning to `COc1ccc2c(c1)OCc1cn(-c3ncccc3C(=O)NC(Cc3ccccc3)C(=O)C(N)=O)nc1-2` (stereo not shown) [Example 142, N-[3-Amino-2,3-dioxo-1-(phenylmethyl)propyl]-2-[7-(methyloxy)chromeno[4,3-c]pyrazol-2(4H)-yl]pyridine-3-carboxamide], the “Sel cat. L: Ki(cathepsin L)/Ki(calpain) ratio” value on cathepsin L is reported as “++ (++ means a Ki(cathepsin L)/Ki(calpain) ratio of ≧50)”. Besides, the “Sel cat. K: Ki(cathepsin K)/Ki(calpain) ratio” value at cathepsin K is “+ (+ means 10≦Ki(cathepsin K)/Ki(calpain)<30)”. For the same compound, at cathepsin B, the “Sel cat. B: Ki(cathepsin B)/Ki(calpain) ratio” value is listed as “+ (+ means 10≦Ki(cathepsin B)/Ki(calpain)<30)”. Also, at cathepsin S, the “Sel cat. S: Ki(cathepsin S)/Ki(calpain) ratio” value is “++ (++ means a Ki(cathepsin S)/Ki(calpain) ratio of ≧100)”.

Regarding `NC(=O)C(=O)C(Cc1ccccc1)NC(=O)c1cccnc1-n1ccc(C23CC4CC(CC(C4)C2)C3)n1` (stereo not shown) [Example 193, N-[3-Amino-2,3-dioxo-1-(phenylmethyl)propyl]-2-(3-tricyclo[3.3.1.1^3,7]dec-1-yl-1H-pyrazol-1-yl)pyridine-3-carboxamide], the “Sel cat. L: Ki(cathepsin L)/Ki(calpain) ratio” value at cathepsin L is “++ (++ means a Ki(cathepsin L)/Ki(calpain) ratio of ≧50)”. The “Sel cat. K: Ki(cathepsin K)/Ki(calpain) ratio” value at cathepsin K is “++ (++ means a Ki(cathepsin K)/Ki(calpain) ratio of ≧30)”. In addition, the “Sel cat. B: Ki(cathepsin B)/Ki(calpain) ratio” value on cathepsin B is reported as “++ (++ means a Ki(cathepsin B)/Ki(calpain) ratio of ≧30)”. For the same compound, the “Sel cat. S: Ki(cathepsin S)/Ki(calpain) ratio” value at cathepsin S was “++ (++ means a Ki(cathepsin S)/Ki(calpain) ratio of ≧100)”.

As for `COc1ccc(Cl)cc1-c1ccn(-c2ncccc2C(=O)NC(Cc2ccccc2)C(=O)C(N)=O)n1` (stereo not shown) [Example 131, N-[3-Amino-2,3-dioxo-1-(phenylmethyl)propyl]-2-{3-[5-chloro-2-(methyloxy)phenyl]-1H-pyrazol-1-yl}pyridine-3-carboxamide], on cathepsin L, the “Sel cat. L: Ki(cathepsin L)/Ki(calpain) ratio” value is listed as “++ (++ means a Ki(cathepsin L)/Ki(calpain) ratio of ≧50)”. Further, on cathepsin K, the “Sel cat. K: Ki(cathepsin K)/Ki(calpain) ratio” value is reported as “++ (++ means a Ki(cathepsin K)/Ki(calpain) ratio of ≧30)”. For the same compound, at cathepsin B, the “Sel cat. B: Ki(cathepsin B)/Ki(calpain) ratio” value is “++ (++ means a Ki(cathepsin B)/Ki(calpain) ratio of ≧30)”. Besides, on cathepsin S, the “Sel cat. S: Ki(cathepsin S)/Ki(calpain) ratio” value was “++ (++ means a Ki(cathepsin S)/Ki(calpain) ratio of ≧100)”.

Regarding `COc1ccc(CC(NC(=O)c2cccnc2-n2ccc(-c3ccc(F)cc3Cl)n2)C(=O)C(N)=O)cc1` (stereo not shown) [Example 111, N-(3-Amino-1-{[4-(methyloxy)phenyl]methyl}-2,3-dioxopropyl)-2-[3-(2-chloro-4-fluorophenyl)-1H-pyrazol-1-yl]pyridine-3-carboxamide], at cathepsin L, the “Sel cat. L: Ki(cathepsin L)/Ki(calpain) ratio” value was “++ (++ means a Ki(cathepsin L)/Ki(calpain) ratio of ≧50)”. On cathepsin K, the “Sel cat. K: Ki(cathepsin K)/Ki(calpain) ratio” value is listed as “++ (++ means a Ki(cathepsin K)/Ki(calpain) ratio of ≧30)”. For the same compound, the “Sel cat. B: Ki(cathepsin B)/Ki(calpain) ratio” value on cathepsin B is “++ (++ means a Ki(cathepsin B)/Ki(calpain) ratio of ≧30)”. On cathepsin S, the “Sel cat. S: Ki(cathepsin S)/Ki(calpain) ratio” value is “++ (++ means a Ki(cathepsin S)/Ki(calpain) ratio of ≧100)”.
